Active and inactive are the calls of the source.
What was measured:
[1] = HEp-2 cell cytotoxicity, dose response, cytotoxicity control for RSV inhibitor project, HTS (AID 2410); assay type: functional; conditions: human respiratory syncytial virus
[2] = biological target: Voltage-gated inwardly rectifying potassium channel KCNH2 (Homo sapiens, UniProt Q12809); conditions: Potency;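 also: confirmatory quantitative high-throughput screen measuring inhibition of hERG channel activity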
[3] = biological target: Heat shock protein HSP 90-alpha (Homo sapiens, UniProt P07900); assay type: functional, organism-based
[4] = biological target: T1, Orexin/Hypocretin receptor type 1 (Homo sapiens, UniProt O43613); experiment: Homogeneous Time Resolved Fluorescence (HTRF)-based cell-based high throughput dose response assay for antagonists of the orexin 1 receptor (OX1R; HCRTR1). [Related pubchem assays (depositor defined):AID434989, AID435008, AID463079, AID485270, AID492963, AID492964, AID492965, AID493232, AID504717, AID504718]; assay type: functional
T1 sequence (O43613 whole entry): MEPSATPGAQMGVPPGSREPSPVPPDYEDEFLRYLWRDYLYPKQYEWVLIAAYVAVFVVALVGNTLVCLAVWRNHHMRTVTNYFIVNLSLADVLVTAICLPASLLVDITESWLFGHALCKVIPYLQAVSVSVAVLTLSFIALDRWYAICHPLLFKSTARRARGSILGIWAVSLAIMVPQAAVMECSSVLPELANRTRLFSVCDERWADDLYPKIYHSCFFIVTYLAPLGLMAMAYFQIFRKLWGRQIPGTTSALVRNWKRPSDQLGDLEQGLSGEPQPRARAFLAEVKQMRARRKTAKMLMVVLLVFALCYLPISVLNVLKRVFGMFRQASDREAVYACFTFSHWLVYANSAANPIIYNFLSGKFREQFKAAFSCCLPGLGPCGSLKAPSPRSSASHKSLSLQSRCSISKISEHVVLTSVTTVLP

CHO-K1 = experiment: (§1) Counterscreen for antagonists of the orexin 1 receptor (OX1R; HCRTR1): Homogeneous time resolved fluorescence (HTRF)-based cell-based dose response assay to identify antagonists of the parental CHO-K1 cell line. [Related pubchem assays (depositor defined):AID434989, AID435008, AID463079, AID485270, AID492963, AID492964, AID492965, AID493232, AID504699, AID504701]; assay type: functional; conditions: Cricetulus griseus
Orexin receptor type 2 [5] = biological target: T2, Orexin receptor type 2 (Homo sapiens, UniProt O43614); experiment: Counterscreen assay for antagonists of the orexin 1 receptor (OX1R; HCRTR1): Homogeneous Time Resolved Fluorescence (HTRF)-based cell-based dose response assay for antagonists of the orexin 2 receptor (OX2R; HCRTR2), run by assay provider.; assay type: functional
T2 sequence (O43614 whole entry): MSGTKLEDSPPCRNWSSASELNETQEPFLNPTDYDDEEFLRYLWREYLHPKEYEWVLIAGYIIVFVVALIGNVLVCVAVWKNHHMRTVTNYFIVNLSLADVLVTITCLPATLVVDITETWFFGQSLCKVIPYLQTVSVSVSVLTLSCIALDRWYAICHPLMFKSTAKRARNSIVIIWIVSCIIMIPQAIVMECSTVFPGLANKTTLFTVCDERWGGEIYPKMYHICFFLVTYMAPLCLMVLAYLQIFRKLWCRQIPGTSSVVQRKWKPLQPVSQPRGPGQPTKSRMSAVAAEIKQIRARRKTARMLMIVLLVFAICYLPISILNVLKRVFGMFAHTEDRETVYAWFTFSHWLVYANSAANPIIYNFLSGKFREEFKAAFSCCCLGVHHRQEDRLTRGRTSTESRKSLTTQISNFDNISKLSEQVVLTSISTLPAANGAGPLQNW

[6] = biological target: T1, Orexin/Hypocretin receptor type 1; experiment: Fluorescence-based cell-based high throughput dose response assay for antagonists of the orexin 1 receptor (OX1R; HCRTR1). [Related pubchem assays (depositor defined):AID434989, AID435008, AID463079, AID485270, AID492963, AID492964, AID492965, AID493232, AID504717, AID504718]; assay type: functional
[7] = as §1, with “Fluorescence-based” for “Homogeneous time resolved fluorescence (HTRF)-based”, “cell-based high throughput” for “cell-based”, “CHO” for “CHO-K1”; assay type: functional
Orexin receptor type 2 [8] = biological target: T2, Orexin receptor type 2; experiment: Counterscreen assay for antagonists of the orexin 1 receptor (OX1R; HCRTR1): Fluorescence-based cell-based dose response assay for antagonists of the orexin 2 receptor (OX2R; HCRTR2), run by assay provider.; assay type: functional
[9] = Luminescence Cell-Based Dose Response HTS to Identify Activators of Luciferase Translation or Activity in H4 […] Cells. [Related pubchem assays: 1829 (Project Summary), 1814 (Primary HTS)]; assay type: functional
[10] = Luminescence Cell-Based Dose Confirmation HTS to Identify Activators of 5'UTR Stem-Loop Driven Alpha-Synuclein mRNA Translation in H4 Neuroglioblastoma Cells. [Related pubchem assays: 1829 (Project Summary), 1814 (Primary HTS)]; assay type: functional
H4 = experiment: Luminescence Cell-Based Dose Response HTS to Identify Activators of 5'UTR Stem-Loop Driven Prion Protein mRNA Translation in H4 Neuroglioblastoma Cells. [Related pubchem assays: 1829 (Project Summary), 1814 (Primary HTS)]; assay type: functional; conditions: Homo sapiens
Melanocortin receptor 4 = Melanocortin receptor 4 (Homo sapiens, UniProt P32245); experiment: MC4R antagonist potency on cAMP, dose response, cell-based, TR-FRET, biased antagonists (AID 602298); assay type: functional;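 also: antagonist potency against agonist-stimulated cAMP production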
[11] = nonselective inhibitors of cellular cAMP signaling, dose response, counter-screen for MC4R biased antagonist project, cell-based, TR-FRET cAMP detection (AID 602305); assay type: functional;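 also: U2OS cells stimulated with forskolin near its EC80 as the cAMP inducer; potency is for inhibition of forskolin-stimulated cAMP signaling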

Voltage-gated inwardly rectifying potassium channel KCNH2, sequence (Q12809 whole entry): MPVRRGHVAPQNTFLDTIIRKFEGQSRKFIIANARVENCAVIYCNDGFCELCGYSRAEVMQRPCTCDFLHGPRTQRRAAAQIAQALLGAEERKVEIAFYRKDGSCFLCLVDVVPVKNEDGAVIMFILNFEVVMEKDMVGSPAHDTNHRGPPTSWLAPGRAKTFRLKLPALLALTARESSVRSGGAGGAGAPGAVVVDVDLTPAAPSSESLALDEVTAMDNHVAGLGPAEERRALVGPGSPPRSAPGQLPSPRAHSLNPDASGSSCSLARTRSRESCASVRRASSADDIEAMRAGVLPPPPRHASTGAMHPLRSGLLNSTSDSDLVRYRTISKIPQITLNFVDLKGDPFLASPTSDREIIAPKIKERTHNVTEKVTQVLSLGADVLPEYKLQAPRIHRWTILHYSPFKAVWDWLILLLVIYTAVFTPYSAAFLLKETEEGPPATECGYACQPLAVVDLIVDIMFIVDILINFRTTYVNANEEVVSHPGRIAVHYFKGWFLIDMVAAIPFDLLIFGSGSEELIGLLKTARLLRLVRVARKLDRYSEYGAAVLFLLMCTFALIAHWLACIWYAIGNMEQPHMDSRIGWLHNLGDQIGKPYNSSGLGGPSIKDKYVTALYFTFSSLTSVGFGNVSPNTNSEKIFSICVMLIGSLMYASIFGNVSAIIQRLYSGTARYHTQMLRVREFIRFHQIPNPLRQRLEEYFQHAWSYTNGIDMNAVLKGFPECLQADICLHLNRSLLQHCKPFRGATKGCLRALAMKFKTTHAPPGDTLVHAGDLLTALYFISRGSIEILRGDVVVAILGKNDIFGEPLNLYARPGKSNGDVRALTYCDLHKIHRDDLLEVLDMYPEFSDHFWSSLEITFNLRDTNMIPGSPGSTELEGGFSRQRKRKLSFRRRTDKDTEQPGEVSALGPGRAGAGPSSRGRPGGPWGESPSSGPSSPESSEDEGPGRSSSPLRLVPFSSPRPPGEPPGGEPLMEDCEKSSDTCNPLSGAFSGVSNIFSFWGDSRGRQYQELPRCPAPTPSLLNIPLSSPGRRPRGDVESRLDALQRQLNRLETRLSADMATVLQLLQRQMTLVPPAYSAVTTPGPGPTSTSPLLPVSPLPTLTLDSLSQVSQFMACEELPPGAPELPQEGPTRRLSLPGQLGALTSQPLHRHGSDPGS
Melanocortin receptor 4, sequence (P32245 whole entry): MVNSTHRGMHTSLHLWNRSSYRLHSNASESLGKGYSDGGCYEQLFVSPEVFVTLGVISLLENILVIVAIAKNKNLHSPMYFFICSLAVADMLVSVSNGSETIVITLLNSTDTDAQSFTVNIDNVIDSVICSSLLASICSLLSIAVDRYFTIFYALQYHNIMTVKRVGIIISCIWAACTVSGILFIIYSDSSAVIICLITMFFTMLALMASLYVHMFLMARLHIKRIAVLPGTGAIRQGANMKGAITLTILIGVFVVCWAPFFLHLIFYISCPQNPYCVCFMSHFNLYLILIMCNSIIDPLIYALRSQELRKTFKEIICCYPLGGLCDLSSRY

CCCCCCCCCCCCCCCC(=O)OC(CC(=O)O)C[N+](C)(C)C (stereo not given)
CC50 [1]: 23.7 µM (active) | AC50 [2]: 35.5 µM (inconclusive) | AC50 [3]: 1.39 µM (active)

CCN(CC)c1ccc(NC(=O)c2cc3ccccc3o2)c(C)c1
IC50 [4]: 2.43 µM (active) | IC50 (CHO-K1): > 66.2 µM (inactive) | IC50 (Orexin receptor type 2 [5]): > 50 µM (inactive) | IC50 [6]: > 49.8 µM (inactive) | IC50 [7]: > 49.8 µM (inactive) | IC50 (Orexin receptor type 2 [8]): > 88.8 µM (inactive)

CSc1nc2ccc3nc(NC(=O)c4ccccc4)sc3c2s1
IC50 [4]: 1.13 µM (active) | IC50 (CHO-K1): > 66.2 µM (inactive) | EC50 [9]: 38.3 µM (active) | IC50 (Orexin receptor type 2 [5]): > 50 µM (inactive) | IC50 [6]: 2.05 µM (active) | EC50 [10]: 43.8 µM (active) | IC50 [7]: > 49.7 µM (inactive) | IC50 (Orexin receptor type 2 [8]): > 88.8 µM (inactive) | EC50 (H4): > 120 µM (not active)

Sc1nnc(-c2ccc3ccccc3n2)n1-c1cc(Cl)cc(Cl)c1
IC50 (Melanocortin receptor 4): > 64.6 µM (inactive) | IC50 [11]: > 64.6 µM (inactive)

From ChEMBL document CHEMBL1201862, “PubChem BioAssay data set” (2004)
